Values after ≈ are worked out from the molar mass of the structure shown. Like-named read-outs stand apart in the source and are kept apart here.
Assays:
Format in all cases: cell-based
[1] = tested on: Staphylococcus aureus NRS384 (MRSA); test: Broth microdilution MIC, S. aureus NRS384 (MRSA); conditions: Staphylococcus aureus, broth microdilution, 37° C., 20 hours, read-out: MIC NRS 384 (MRSA)
Description: (§1) Bacteria tested are Staphylococcus aureus NRS384 (a methicillin-resistant Staphylococcus aureus, MRSA), Staphylococcus aureus ATCC 29213 (a methicillin-sensitive Staphylococcus aureus, MSSA), Streptococcus pneumoniae ATCC 49619, Enterococcus faecalis ATCC 29212, Enterococcus faecium ATCC 700221 (a vancomycin-resistant enterococcus, VRE), Bacillus subtilis ATCC 6633, and Escherichia coli ATCC 25922.
(§2) Staphylococcus aureus NRS384 was obtained from NARSA (Network on Antimicrobial Resistance in Staphylococcus aureus, now the strain collection is in BEI resources). Other bacterial isolates were from ATCC (The American Type Culture Collection). Upon receiving the bacteria samples from aforementioned institutes, the bacteria were cultured according to the manuals provided by the suppliers. The bacteria were stored in 25% glycerol (final concentration) at −80° C.
(§3) On the day of testing, the compounds were dissolved in pure DMSO (Sigma 276855-1L) to […] as stock. In a v-bottom 96-well plate (Axygen-wipp02280), 20 μl DMSO was added into well 2 to well 12 by manual pipetting. Into well 1, 12.8 μL of compound DMSO stock (20 mg/ml) was added and mixed with 27.2 μl DMSO by pipetting. Two fold serial dilutions were performed by transferring and mixing 20 μl of solution from well 1 to well 2, then well 2 to well 3 and so forth until well 11. The well 12 was loaded with 20 μl DMSO without compounds. This was drug ‘mother plate’. From well 1 to well 12, the drug concentrations in the mother plate were […] in DMSO. A multi-pipette was used to perform the serial dilutions. The concentration may be adjusted according to the potency of the compounds. An Echo® Acoustic liquid handling system may be used to replace manual pipetting to make the daughter plates.
(§4) One day prior to the day of MIC testing, bacterial strains were streaked out from −80° C. glycerol stocks onto MHA plates and incubated at 37° C. for 20 hours. Streptococcus pneumoniae was streaked on blood agar and incubated at 37° C. in 5% CO2. The single colonies were picked by using an inoculation loop (Greiner-731175) and suspended into 5 ml sterile saline. The turbidity of the suspension was adjusted to 0.10 (Siemens MicroScan turbidity meter), equal to ˜1.0×10^8 cfu/ml. The bacterial suspension was diluted 200× in corresponding test medium (Table 1). This was used to inoculate daughter plates.
(§5) For preparing u-bottom 96-well ‘daughter plates’ (Costar 3788), an aliquot of 1 μl solution from mother plate was then replicating transferred into the daughter plate using a multi-pipette.
(§6) An aliquot of 99 μl of the bacterial suspension was inoculated into each well of the daughter plates using a multi-pipette. Each well contained ˜5.0×10^5 cfu/ml bacteria, 1% DMSO and serially diluted compounds at 64, 32, 16, 8, 4, 2, 1, 0.5, 0.25, 0.125, 0.0625 and 0 μg/ml from well 1 to well 12 respectively, in 100 μl corresponding test medium.
(§7) The plates were incubated in ambient atmosphere and in a 37° C. incubator for 20 hours.
(§8) Compounds of the present invention were tested for antibacterial activity against a variety of bacterial organism including Bacillus subtilis, Staphylococcus aureus, Enterococcus faecalis, Enterococcus faecium, Streptococcus pneumoniae and Escherichia coli. […] Compounds described in Examples 2, 44, 53, 56, 90, 134, 212, 213, 214, 218, 222, 304, 305, and 307 had MIC of ≤1 μg/ml against S. aureus NRS 384 (MRSA) (μg/ml) and E. faecium ATCC 700221 (VRE) (μg/ml).

[2] = tested on: Staphylococcus aureus ATCC 29213 (MSSA); test: Broth microdilution MIC, S. aureus ATCC 29213 (MSSA); conditions: broth microdilution, 37° C., 20 hours, read-out: MIC S. aureus ATCC 29213 (MSSA)
Description: as §1, §2, §3, §4, §5, §6, §7, §8

[3] = tested on: Enterococcus faecalis ATCC 29212; test: Broth microdilution MIC, E. faecalis ATCC 29212; conditions: ATCC29212, broth microdilution, 37° C., 20 hours, read-out: MIC E. faecalis ATCC 29212
Description: as §1, §2, §3, §4, §5, §6, §7, §8

[4] = tested on: Enterococcus faecium ATCC 700221 (VRE); test: Broth microdilution MIC, E. faecium ATCC 700221 (VRE); conditions: Enterococcus faecium; broth microdilution, 37° C., 20 hours; read-out: MIC E. faecium ATCC 700221 (VRE)
Description: as §1, §2, §3, §4, §5, §6, §7, §8

[5] = tested on: Streptococcus pneumoniae ATCC 49619; test: Broth microdilution MIC, S. pneumoniae ATCC 49619; conditions: ATCC49619, broth microdilution, 37° C., 20 hours, read-out: MIC S. pneumoniae ATCC 49619
Description: as §1, §2, §3, §4, §5, §6, §7, §8

[6] = tested on: Bacillus subtilis ATCC 6633; test: Broth microdilution MIC, B. subtilis ATCC 6633; conditions: ATCC6633, broth microdilution, 37° C., 20 hours, read-out: MIC B. subtilis ATCC 6633
Description: as §1, §2, §3, §4, §5, §6, §7, §8

[7] = tested on: Escherichia coli ATCC 25922; test: Broth microdilution MIC, E. coli ATCC 25922 (MHIIB w & w/o 4 mM EDTA); conditions: broth microdilution, 37° C., 20 hours; for MIC: Escherichia coli, ATCC25922, without EDTA, read-out: MIC E. coli ATCC 25922; for MIC E. coli ATCC 25922 + 4 mM EDTA: with 4 mM EDTA
Description: as §1, §2, §3, §4, §5, §6, §7, §8

SMILES	MIC ([1]; S. aureus NRS 384) [µg/mL]	MIC [2] [µg/mL]	MIC [3] [µg/mL]	MIC [4] [µg/mL]	MIC [5] [µg/mL]	MIC [6] [µg/mL]	MIC [7] [µg/mL]	MIC E. coli ATCC 25922 + 4 mM EDTA [7] [µg/mL]	MIC [1] [µg/mL]
O=c1c2c(cnn2CCOCCO)nc(NCc2ccc(Cl)c(Cl)c2)n1COP(=O)(O)O [Compound 320, (5-((3,4-dichlorobenzyl)amino)-1-(2-(2-hydroxyethoxy)ethyl)-7-oxo-1H-pyrazolo[4,3-d]pyrimidin-6(7H)-yl)methyl dihydrogen phosphate]	> 64	> 64	> 64	> 64	> 64	> 64	> 64	>64	
Cl.O=c1[nH]c(NCc2ccc(Cl)c(Cl)c2)nc2cnn(CC3CCCNC3)c12 (stereo not drawn) [Compound 154, 5-((3,4-dichlorobenzyl)amino)-1-(piperidin-3-ylmethyl)-1H-pyrazolo[4,3-d]pyrimidin-7(6H)-one hydrochloride]		32	32	32	4	8	> 64	32	32
Cl.O=c1[nH]c(NCc2ccc(Cl)c(Cl)c2)nc2cnn(Cc3coc(C4CCCNC4)n3)c12 (stereo not drawn) [Compound 173, 5-((3,4-dichlorobenzyl)amino)-1-((2-(piperidin-3-yl)oxazol-4-yl)methyl)-1H-pyrazolo[4,3-d]pyrimidin-7(6H)-one hydrochloride]		32	32	32	8	8	> 64	64	32
COCCOCn1ncc2nc(NCc3ccc(Cl)c(Cl)c3)[nH]c(=O)c21 [Compound 138, 5-((3,4-dichlorobenzyl)amino)-1-((2-methoxyethoxy)methyl)-1H-pyrazolo[4,3-d]pyrimidin-7(6H)-one]		2 (≈ 5.02 µM)	4 (≈ 10 µM)	2 (≈ 5.02 µM)	2 (≈ 5.02 µM)	1 (≈ 2.51 µM)	> 64	>64	2 (≈ 5.02 µM)
O=c1[nH]c(NCc2ccc(Cl)c(Cl)c2)nc2cn(-c3ncccn3)nc12 [Compound 140, 5-((3,4-Dichlorobenzyl)amino)-2-(pyrimidin-2-yl)-2H-pyrazolo[4,3-d]pyrimidin-7(6H)-one]		> 64	> 64	32 (≈ 82.4 µM)	4 (≈ 10.3 µM)	4 (≈ 10.3 µM)	> 64	>64	> 64
O=c1[nH]c(NCc2ccc(Cl)c(Cl)c2)nc2cnn(Cc3nccs3)c12 [Compound 91, 5-((3,4-Dichlorobenzyl)amino)-1-(thiazol-2-ylmethyl)-1H-pyrazolo[4,3-d]pyrimidin-7(6H)-one]		4 (≈ 9.82 µM)	4 (≈ 9.82 µM)	2 (≈ 4.91 µM)	4 (≈ 9.82 µM)	1 (≈ 2.46 µM)	> 64	32	2 (≈ 4.91 µM)
O=c1[nH]c(NCc2ccc(Cl)c(Cl)c2)nc2cnn(CCCOCCO)c12 [Compound 169, 5-[(3,4-dichlorophenyl)methylamino]-1-[3-(2-hydroxyethoxy)propyl]-6H-pyrazolo[4,3-d]pyrimidin-7-one]		8 (≈ 19.4 µM)	8 (≈ 19.4 µM)	4 (≈ 9.7 µM)	8 (≈ 19.4 µM)	2 (≈ 4.85 µM)	> 64	>64	8 (≈ 19.4 µM)
Cn1ncc2nc(Nc3ccccc3)[nH]c(=O)c21 [Compound 10, 1-Methyl-5-(phenylamino)-1H-pyrazolo[4,3-d]pyrimidin-7(6H)-one]		> 64	> 64	> 64	> 64	> 64	> 64	>64	> 64
O=c1[nH]c(NCc2ccc(Cl)c(Cl)c2)nc2cnn(C(CO)CO)c12 [Compound 107, 5-((3,4-Dichlorobenzyl)amino)-1-(1,3-dihydroxypropan-2-yl)-1H-pyrazolo[4,3-d]pyrimidin-7(6H)-one]		> 64	> 64	> 64	16 (≈ 41.6 µM)	32 (≈ 83.3 µM)	> 64	>64	> 64
Cl.O=C(c1nnc[nH]1)N1CCC(n2ncc3nc(NCc4ccc(Cl)c(Cl)c4)[nH]c(=O)c32)CC1 [Compound 265, 1-(1-(4H-1,2,4-triazole-3-carbonyl)piperidin-4-yl)-5-((3,4-dichlorobenzyl)amino)-1H-pyrazolo[4,3-d]pyrimidin-7(6H)-one hydrochloride]		8	4	4	4	4	> 64	>64	8
CC(C(=O)O)n1ncc2nc(NCc3ccc(Cl)c(Cl)c3)[nH]c(=O)c21 (stereo not drawn) [Compound 226, 2-(5-((3,4-dichlorobenzyl)amino)-7-oxo-6,7-dihydro-1H-pyrazolo[4,3-d]pyrimidin-1-yl)propanoic acid]		> 64	> 64	64 (≈ 167 µM)	> 64	64 (≈ 167 µM)	> 64	>64	64 (≈ 167 µM)
O=c1[nH]c(NCc2ccc(Cl)c(Cl)c2)nc2cnn(CCNCCn3ncc4nc(NCc5ccc(Cl)c(Cl)c5)[nH]c(=O)c43)c12 [Compound 78]		64 (≈ 92.8 µM)	8 (≈ 11.6 µM)	2 (≈ 2.9 µM)	32 (≈ 46.4 µM)	4 (≈ 5.8 µM)	> 64	>64	32 (≈ 46.4 µM)
COCC(CN(C)C)OCCn1ncc2nc(NCc3ccc(Cl)c(Cl)c3)[nH]c(=O)c21.Cl (stereo not drawn) [Compound 183, 5-((3,4-dichlorobenzyl)amino)-1-(2-((1-(dimethylamino)-3-methoxypropan-2-yl)oxy)ethyl)-1H-pyrazolo[4,3-d]pyrimidin-7(6H)-one hydrochloride]		64	32	32	8	8	> 64	>64	64
CC(C)(C)OC(=O)N1CCC(n2ncc3nc(NCc4ccc(Cl)c(Cl)c4)[nH]c(=O)c32)CC1 [Compound 153, Tert-butyl 4-(5-((3,4-dichlorobenzyl)amino)-7-oxo-6,7-dihydro-1H-pyrazolo[4,3-d]pyrimidin-1-yl)piperidine-1-carboxylate]		8 (≈ 16.2 µM)	4 (≈ 8.11 µM)	2 (≈ 4.05 µM)	16 (≈ 32.4 µM)	2 (≈ 4.05 µM)	> 64		4 (≈ 8.11 µM)

— US10723741B1, “DNA polymerase IIIC inhibitors and use thereof” (Acurx Pharmaceuticals, LLC, priority 2018, dated 2020)
